From ChEMBL document CHEMBL1201862, “PubChem BioAssay data set” (2004)
Active and inactive are the calls of the source.

Tests used:
[1] = system: HeLa; assay: HeLa cell cytotoxicity, dose response, cytotoxicity control, ATP luminescence, cherry-pick samples (AID 687004); assay type: functional, cell-based; conditions: Homo sapiens
[2] = ZM109 Env clade C HIV-1 fusion inhibitors, dose response, HeLa effector, CEM target cells, luciferase, cherry-pick (AID 652058); assay type: functional, cell-based
[3] = intracellular Trypanosoma cruzi inhibitors in host cells – cell-based, plate reader, cherry-pick samples, set 3, dose response (AID 651818); assay type: functional;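 note: compounds incubated with infected cells for about four days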
[4] = NIH/3T3 fibroblast cytotoxicity, dose response, cytotoxicity control for T. cruzi growth inhibitor project, cell-based, cherry-pick samples, set 2 (AID 651817); assay type: functional; conditions: NIH3T3
[5] = target: Fructose-bisphosphate aldolase (Mycobacterium tuberculosis, UniProt P9WQA3); assay: Fluorescence-based biochemical high throughput dose response assay for inhibitors of the fructose-bisphosphate aldolase (FBA) of M. tuberculosis.; assay type: functional
[6] = target: Adenosylmethionine-8-amino-7-oxononanoate aminotransferase (Mycobacterium tuberculosis, UniProt P9WQ81); assay: Mycobacterium tuberculosis BioA enzyme inhibitor Measured in Biochemical System Using Plate Reader - 2163-02_Inhibitor_Dose_CherryPick_Activity.; assay type: functional, Mycobacterium tuberculosis UT205
[7] = target: T1, Interleukin-8 (Homo sapiens, UniProt P10145); assay: Dose Response confirmation of uHTS small molecule hits for cystic fibrosis induced NFkb Inhibitors in a TNFa-induced IL8 counterscreen.; assay type: functional; conditions: read-out: IC50_Mean
[8] = target: T1, Interleukin-8; assay: Dose Response confirmation of uHTS small molecule hits for cystic fibrosis induced NFkb Inhibitors in a PAF-induced IL8 counterscreen.; assay type: functional; conditions: read-out: IC50_Mean
[9] = target: T2, Probable nicotinate-nucleotide adenylyltransferase (Staphylococcus aureus (strain N315), UniProt P65502); assay type: functional, Staphylococcus aureus subsp. aureus N315;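 for IC50 Mean: confirmatory dose-response retesting of NadD inhibitor hits first found in an ultra-high-throughput screen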
[10] = target: T2, Probable nicotinate-nucleotide adenylyltransferase; assay type: functional, Staphylococcus aureus subsp. aureus N315; conditions: read-out: IC50_Mean
[11] = target: T3, ATP-dependent translocase ABCB1 (Homo sapiens, UniProt P08183); assay: ABCB1 efflux inhibitor potency, dose response, Jurkat-DNR cells, JC-1, flow cytometry, set 2 (AID 504569); assay type: functional; conditions: read-out: EC50_MICROM_;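 note: potency of pump inhibitors that raise cellular JC-1 green fluorescence up to the nicardipine level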
[12] = target: T3, ATP-dependent translocase ABCB1; assay: ABCG2 efflux pump inhibitor potency, dose response, Ig-MXP3 cells, JC-1, flow cytometry, set 2 (AID 504566); assay type: functional; conditions: read-out: EC50_MICROM_;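 note: flow cytometry median green fluorescence of retained JC-1 dye; potency of efflux pump inhibition measured as rising substrate retention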
[13] = target: T4, High affinity choline transporter 1 (Homo sapiens, UniProt Q9GZV3); assay: CHT inhibitors, dose response, cell-based, 10-point CRC, membrane potential dye (AID 588401); assay type: functional;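 note: membrane potential dye fluorescence of choline-evoked depolarization via CHT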
T4 sequence (Q9GZV3 whole entry): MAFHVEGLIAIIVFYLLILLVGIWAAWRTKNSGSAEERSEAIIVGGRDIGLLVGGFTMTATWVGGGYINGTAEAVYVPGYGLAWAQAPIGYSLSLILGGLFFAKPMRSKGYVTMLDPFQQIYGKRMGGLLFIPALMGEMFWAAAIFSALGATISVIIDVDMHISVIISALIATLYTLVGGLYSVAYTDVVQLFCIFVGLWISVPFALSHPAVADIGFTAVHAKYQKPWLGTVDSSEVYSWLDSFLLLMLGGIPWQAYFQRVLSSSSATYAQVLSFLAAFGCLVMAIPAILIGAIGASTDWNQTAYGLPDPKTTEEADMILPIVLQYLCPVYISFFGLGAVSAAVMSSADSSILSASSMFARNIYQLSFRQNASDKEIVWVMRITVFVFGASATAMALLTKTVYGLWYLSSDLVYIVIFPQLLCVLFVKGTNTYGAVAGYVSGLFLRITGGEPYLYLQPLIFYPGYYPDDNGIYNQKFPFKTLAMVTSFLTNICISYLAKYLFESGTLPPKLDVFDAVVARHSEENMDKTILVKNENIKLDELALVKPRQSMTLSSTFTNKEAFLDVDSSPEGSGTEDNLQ

[14] = target: T4, High affinity choline transporter 1; assay: inhibitors of CHT choline uptake, dose response, cell-based, 3H-choline uptake, CHT LV-AA trafficking mutant, CRC (AID 602208); assay type: functional
[15] = target: T4, High affinity choline transporter 1; assay: CHT inhibitors, dose response, cell-based, 5-point CRC, membrane potential dye (AID 504840); assay type: functional
[16] = target: T5, Protein Wnt-3a (Mus musculus, UniProt P27467); assay: SAR analysis of small molecule antagonists of Gli-SUFU in a Wnt3a luminescent reporter assay.; assay type: functional
[17] = HEK293T cytotoxicity, dose response, cytotoxicity control for miR-122 modulator project, cell-based, inhibitor set, cherry-pick, set 2 (AID 720697); assay type: functional
[18] = target: Albumin (Bos taurus, UniProt P02769); assay: Counterscreen for inhibitors of T-cell receptor (TCR)-CD3 interaction: Fluorescence-based biochemical high throughput dose response assay to identify inhibitors of T-cell receptor (TCR)-CD3 interaction using a TAMRA-labeled BSA probe.; assay type: functional
[19] = Counterscreen for inhibitors of Trypanosoma brucei methionyl tRNA synthetase (MetRS): Luminescence-based cell-based high throughput dose response assay to identify compounds that are cytotoxic to Jurkat human T lymphocyte cells.; assay type: functional
[20] = target: T6, Methionyl-tRNA synthetase, putative (Trypanosoma brucei brucei, UniProt Q38C91); assay type: functional, Trypanosoma brucei brucei strain 927/4 GUTat10.1
[21] = target: T6, Methionyl-tRNA synthetase, putative; assay type: functional, Trypanosoma brucei brucei strain 927/4 GUTat10.1; remark: listed apart in the source
[22] = Fluorescence-based cell-based high throughput dose response assay for inhibitors of the interaction of nucleotide-binding oligomerization domain containing 2 (NOD2) and the receptor-interacting serine-threonine kinase 2 (RIPK2).; assay type: functional; conditions: Homo sapiens
[23] = target: T7, Rac GTPase-activating protein 1 (Homo sapiens, UniProt Q9H0H5); assay: MgcRacGAP GTPase-activating activity inhibitors, confirmation, biochemical, ADP Hunter fluorescence, primary and confirmatory (AID 624330); assay type: functional
T7 sequence (Q9H0H5 whole entry): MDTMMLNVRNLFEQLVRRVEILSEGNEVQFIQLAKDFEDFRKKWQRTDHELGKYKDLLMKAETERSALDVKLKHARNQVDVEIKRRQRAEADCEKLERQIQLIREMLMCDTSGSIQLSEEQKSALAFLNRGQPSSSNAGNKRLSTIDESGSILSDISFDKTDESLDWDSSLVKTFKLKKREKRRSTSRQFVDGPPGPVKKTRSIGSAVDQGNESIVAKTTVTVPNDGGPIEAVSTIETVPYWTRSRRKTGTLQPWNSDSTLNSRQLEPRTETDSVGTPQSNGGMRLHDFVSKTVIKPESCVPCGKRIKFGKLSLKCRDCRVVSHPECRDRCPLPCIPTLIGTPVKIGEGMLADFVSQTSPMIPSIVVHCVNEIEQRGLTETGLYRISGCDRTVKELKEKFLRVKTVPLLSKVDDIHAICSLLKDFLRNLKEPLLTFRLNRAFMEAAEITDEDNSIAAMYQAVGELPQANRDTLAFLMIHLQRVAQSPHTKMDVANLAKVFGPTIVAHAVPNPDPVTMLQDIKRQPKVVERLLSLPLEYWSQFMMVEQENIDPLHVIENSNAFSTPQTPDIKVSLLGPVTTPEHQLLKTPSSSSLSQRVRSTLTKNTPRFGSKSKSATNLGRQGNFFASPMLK

[24] = cells; assay type: functional, cell-based; conditions: HEK-CNG
[25] = target: Galanin receptor type 3 (Homo sapiens, UniProt O60755); assay: Fluorescence-based cell-based primary high throughput dose response assay to identify antagonists of the Galanin Receptor 3 (GalR3).; assay type: functional
[26] = ARNT/TACC3 interaction disruptors, potency, confirmation, biochemical, AlphaScreen, cherry-picked samples (AID 651703); assay type: functional, Homo sapiens;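 note: His-tagged ARNT PAS-B domain paired with GST-TACC3 E629A dimer coactivator fragment; potency of inhibitors that break up the complex and lower AlphaScreen signal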
[27] = target: Nonstructural protein 1 (Influenza A virus, UniProt Q194T2); assay type: functional, Influenza A virus (A/California/07/2009(H1N1))
[28] = AlphaScreen signal interference compounds, dose response, artefact control for ARNT-TACC3 interaction inhibitor project, biochemical, luminescence, cherry-pick (AID 651705); assay type: functional;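 note: AlphaScreen bead proximity signal that flags compounds interfering with the detection technology; potency reflects signal decrease which marks the compound as an assay artifact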
[29] = target: T5, Protein Wnt-3a; assay: Wnt3a-driven reporter signaling inhibition, dose response, selectivity assay for Gli-SUFU antagonist project, Wnt-LIGHT cells, luminescence (AID 651570); assay type: functional; conditions: read-out: IC50_Mean;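 note: Wnt-LIGHT reporter cells stimulated with conditioned medium from Wnt3a-producing cells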
[30] = microbe, parasite or virus in culture; assay type: functional; conditions: Mycobacterium tuberculosis
[31] = target: T8, Low molecular weight phosphotyrosine protein phosphatase (Homo sapiens, UniProt P24666); assay type: functional; conditions: read-out: IC50_Mean
[32] = target: T8, Low molecular weight phosphotyrosine protein phosphatase; assay type: functional; conditions: read-out: IC50_Mean; remark: listed apart in the source
[33] = C. albicans growth with fluconazole, confirmation, fluorescence, retest (AID 2467); assay type: functional, cell-based
[34] = NIH-3T3 fibroblast cytotoxicity, dose response, cytotoxicity control, cell-based, fluorescence, Alamar Blue, secondary assay (AID 2327); assay type: functional;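 note: NIH-3T3 mouse fibroblasts cultured with fluconazole at 8 µg/mL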
[35] = target: T9, Short transient receptor potential channel 4 (Mus musculus, UniProt Q9QUQ5); assay: mouse TRPC4 channel activators, dose response, cell-based, HEK293 TRPC4/mu-opioid, Fluo-4 calcium (AID 434937); assay type: functional
T9 sequence (Q9QUQ5 whole entry): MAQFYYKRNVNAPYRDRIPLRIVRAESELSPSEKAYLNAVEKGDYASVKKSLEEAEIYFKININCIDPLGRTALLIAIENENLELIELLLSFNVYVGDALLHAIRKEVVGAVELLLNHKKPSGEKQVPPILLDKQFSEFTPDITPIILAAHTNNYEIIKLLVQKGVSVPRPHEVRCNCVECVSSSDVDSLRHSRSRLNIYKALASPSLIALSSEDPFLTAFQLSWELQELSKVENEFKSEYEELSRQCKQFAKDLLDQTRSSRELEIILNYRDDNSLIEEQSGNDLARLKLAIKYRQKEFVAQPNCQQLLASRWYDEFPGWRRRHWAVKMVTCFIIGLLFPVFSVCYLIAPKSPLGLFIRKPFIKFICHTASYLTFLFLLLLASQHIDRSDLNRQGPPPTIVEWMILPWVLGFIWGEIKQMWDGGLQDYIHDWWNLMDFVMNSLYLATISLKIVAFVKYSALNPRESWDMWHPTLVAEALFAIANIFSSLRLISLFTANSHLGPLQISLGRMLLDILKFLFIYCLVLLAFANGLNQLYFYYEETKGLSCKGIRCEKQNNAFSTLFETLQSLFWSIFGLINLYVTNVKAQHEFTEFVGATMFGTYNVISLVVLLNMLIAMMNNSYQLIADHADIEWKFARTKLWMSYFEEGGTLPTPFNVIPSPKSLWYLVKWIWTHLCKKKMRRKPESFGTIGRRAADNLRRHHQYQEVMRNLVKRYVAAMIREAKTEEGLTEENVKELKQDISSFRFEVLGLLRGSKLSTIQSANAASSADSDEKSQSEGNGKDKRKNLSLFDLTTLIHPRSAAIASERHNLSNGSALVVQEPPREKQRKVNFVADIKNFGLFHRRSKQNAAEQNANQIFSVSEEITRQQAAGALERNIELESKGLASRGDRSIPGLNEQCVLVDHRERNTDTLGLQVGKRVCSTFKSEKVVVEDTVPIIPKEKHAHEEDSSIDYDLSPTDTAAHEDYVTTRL

T8 sequence (P24666 whole entry): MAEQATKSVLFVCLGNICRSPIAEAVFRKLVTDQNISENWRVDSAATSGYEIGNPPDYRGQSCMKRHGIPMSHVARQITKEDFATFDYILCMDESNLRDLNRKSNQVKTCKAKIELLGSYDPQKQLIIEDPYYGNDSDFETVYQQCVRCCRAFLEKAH
T1 sequence (P10145 whole entry): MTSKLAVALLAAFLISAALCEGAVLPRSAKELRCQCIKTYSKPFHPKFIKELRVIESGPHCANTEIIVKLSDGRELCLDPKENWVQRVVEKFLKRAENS
T5 sequence (P27467 whole entry): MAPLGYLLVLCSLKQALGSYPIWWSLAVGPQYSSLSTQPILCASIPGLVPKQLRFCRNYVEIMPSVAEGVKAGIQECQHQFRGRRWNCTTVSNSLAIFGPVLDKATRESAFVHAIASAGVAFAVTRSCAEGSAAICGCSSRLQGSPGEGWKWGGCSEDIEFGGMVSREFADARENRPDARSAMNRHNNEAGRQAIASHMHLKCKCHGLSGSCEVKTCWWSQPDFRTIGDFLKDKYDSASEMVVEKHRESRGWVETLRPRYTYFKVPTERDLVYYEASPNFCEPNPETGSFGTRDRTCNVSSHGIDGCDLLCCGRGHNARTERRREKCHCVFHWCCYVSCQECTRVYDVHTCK
T3 sequence (P08183 whole entry): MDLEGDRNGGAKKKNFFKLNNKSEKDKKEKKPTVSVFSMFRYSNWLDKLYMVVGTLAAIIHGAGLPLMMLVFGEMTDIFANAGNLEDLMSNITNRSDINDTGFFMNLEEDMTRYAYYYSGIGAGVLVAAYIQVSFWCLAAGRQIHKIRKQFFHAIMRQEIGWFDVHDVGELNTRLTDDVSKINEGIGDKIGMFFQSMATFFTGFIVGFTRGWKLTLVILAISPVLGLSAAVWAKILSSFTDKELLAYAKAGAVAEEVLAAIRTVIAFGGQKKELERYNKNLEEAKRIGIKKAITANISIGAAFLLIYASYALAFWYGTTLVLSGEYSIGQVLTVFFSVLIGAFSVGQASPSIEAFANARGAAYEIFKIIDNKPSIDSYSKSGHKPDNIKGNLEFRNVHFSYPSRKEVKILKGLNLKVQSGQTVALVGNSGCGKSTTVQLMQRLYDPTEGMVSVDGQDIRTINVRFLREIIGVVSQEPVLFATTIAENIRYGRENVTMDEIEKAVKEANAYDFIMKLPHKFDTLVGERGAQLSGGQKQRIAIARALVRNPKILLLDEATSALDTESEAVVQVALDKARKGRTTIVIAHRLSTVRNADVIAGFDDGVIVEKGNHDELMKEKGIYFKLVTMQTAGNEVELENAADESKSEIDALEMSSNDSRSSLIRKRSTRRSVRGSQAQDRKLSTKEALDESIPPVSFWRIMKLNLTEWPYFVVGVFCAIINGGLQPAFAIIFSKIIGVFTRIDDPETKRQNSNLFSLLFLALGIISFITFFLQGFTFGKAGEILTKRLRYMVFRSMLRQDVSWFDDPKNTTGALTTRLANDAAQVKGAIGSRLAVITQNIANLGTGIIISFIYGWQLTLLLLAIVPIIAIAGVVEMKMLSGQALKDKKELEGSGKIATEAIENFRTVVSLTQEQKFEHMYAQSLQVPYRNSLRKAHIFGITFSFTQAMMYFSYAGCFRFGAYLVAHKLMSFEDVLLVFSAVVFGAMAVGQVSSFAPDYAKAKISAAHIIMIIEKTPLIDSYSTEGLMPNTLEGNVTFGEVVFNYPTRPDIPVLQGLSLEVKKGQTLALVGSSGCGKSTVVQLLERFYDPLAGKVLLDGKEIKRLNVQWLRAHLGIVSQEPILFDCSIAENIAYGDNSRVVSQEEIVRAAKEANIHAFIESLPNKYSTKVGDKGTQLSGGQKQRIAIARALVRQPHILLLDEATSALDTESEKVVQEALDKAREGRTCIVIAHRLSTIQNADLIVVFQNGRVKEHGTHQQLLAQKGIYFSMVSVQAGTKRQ
T6 sequence (Q38C91 whole entry): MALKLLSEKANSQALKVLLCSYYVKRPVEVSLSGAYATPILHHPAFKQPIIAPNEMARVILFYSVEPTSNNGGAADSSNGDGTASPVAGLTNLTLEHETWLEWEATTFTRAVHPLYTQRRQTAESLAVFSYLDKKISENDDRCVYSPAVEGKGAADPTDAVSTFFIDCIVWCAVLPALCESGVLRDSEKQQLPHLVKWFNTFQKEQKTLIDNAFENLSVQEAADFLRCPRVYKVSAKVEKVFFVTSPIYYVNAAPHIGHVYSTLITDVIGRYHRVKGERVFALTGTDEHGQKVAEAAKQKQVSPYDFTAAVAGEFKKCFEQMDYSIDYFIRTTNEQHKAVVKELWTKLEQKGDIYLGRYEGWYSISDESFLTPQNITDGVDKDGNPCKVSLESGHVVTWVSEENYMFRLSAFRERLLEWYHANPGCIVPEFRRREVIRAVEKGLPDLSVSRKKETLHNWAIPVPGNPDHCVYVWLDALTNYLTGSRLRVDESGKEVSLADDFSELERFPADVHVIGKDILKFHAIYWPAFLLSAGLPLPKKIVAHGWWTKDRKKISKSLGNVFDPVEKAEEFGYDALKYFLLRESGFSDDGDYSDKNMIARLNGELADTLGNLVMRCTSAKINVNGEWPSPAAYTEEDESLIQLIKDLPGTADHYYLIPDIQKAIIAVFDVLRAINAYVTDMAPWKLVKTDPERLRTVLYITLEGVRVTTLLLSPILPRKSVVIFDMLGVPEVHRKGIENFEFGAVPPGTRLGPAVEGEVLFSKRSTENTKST
T2 sequence (P65502 whole entry): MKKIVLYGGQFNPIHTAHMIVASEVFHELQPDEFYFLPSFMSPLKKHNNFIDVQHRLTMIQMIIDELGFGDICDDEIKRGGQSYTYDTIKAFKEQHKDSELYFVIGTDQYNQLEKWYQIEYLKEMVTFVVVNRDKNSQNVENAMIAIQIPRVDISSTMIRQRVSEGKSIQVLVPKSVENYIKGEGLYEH
Chain of Fructose-bisphosphate aldolase (P9WQA3 whole entry): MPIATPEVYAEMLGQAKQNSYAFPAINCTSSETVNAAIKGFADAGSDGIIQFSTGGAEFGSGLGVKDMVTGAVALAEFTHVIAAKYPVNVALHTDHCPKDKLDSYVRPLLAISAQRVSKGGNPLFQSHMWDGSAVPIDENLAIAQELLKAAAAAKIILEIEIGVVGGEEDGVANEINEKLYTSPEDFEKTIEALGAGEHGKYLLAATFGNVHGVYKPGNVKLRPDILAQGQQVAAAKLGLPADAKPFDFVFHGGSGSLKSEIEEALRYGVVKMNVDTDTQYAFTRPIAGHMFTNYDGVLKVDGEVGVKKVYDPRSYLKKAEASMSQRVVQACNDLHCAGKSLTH
Chain of Albumin (P02769 whole entry): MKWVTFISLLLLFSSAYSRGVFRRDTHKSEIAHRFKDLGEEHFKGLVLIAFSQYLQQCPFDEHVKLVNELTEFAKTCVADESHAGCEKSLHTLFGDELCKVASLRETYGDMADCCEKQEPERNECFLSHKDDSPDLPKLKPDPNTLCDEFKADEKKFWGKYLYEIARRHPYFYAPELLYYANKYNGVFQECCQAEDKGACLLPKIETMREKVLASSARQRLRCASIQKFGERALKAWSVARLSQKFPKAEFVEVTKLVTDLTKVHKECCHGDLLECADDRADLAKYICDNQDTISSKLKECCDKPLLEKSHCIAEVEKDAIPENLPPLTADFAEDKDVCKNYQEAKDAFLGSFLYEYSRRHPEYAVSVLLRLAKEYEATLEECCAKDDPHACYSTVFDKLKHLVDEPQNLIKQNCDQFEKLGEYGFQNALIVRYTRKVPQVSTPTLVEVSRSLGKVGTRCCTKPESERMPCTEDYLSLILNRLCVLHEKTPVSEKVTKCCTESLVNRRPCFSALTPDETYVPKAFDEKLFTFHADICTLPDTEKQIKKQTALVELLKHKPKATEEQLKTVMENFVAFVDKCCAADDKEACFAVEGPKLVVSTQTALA
Chain of Nonstructural protein 1 (Q194T2 whole entry): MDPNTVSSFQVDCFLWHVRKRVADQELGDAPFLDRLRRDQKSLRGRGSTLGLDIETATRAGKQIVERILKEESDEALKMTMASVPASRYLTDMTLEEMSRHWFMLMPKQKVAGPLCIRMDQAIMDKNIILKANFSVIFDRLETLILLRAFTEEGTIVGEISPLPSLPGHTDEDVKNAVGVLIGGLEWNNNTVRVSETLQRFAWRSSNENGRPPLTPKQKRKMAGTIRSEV
Chain of Adenosylmethionine-8-amino-7-oxononanoate aminotransferase (P9WQ81 whole entry): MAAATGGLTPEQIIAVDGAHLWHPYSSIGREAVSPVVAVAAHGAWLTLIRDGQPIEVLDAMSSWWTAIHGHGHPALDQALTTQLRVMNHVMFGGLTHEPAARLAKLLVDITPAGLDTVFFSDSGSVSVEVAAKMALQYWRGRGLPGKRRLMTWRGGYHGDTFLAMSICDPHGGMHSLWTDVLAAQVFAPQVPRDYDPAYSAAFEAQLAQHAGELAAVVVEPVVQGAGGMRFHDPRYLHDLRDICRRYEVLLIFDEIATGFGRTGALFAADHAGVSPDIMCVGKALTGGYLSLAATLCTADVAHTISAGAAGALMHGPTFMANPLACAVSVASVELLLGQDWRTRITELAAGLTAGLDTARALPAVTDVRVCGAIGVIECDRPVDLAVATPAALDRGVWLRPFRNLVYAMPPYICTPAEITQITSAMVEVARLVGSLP
Chain of Galanin receptor type 3 (O60755 whole entry, the tested form may be a part): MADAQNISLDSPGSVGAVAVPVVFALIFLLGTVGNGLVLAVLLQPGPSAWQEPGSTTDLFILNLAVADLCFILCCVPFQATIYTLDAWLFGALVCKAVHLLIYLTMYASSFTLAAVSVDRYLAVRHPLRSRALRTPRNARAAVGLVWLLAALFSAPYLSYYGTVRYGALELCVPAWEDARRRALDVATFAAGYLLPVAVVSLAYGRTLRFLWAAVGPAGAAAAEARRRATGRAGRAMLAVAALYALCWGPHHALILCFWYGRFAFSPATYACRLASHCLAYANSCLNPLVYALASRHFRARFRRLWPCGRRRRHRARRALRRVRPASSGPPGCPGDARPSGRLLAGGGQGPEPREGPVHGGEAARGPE

COc1ccccc1C(=O)Nc1ccc2c(c1)OC[C@H](C)N(C(C)=O)C[C@H](C)[C@H](OC)CN(C)C2=O
AC50 [1]: 44.9 µM (active)
AC50 [2]: 33.4 µM (active)

C[C@@H]1CN([C@H](C)CO)C(=O)Cc2cc(NS(=O)(=O)c3ccc(Cl)cc3)ccc2O[C@@H]1CN(C)S(=O)(=O)c1ccc(Cl)cc1
AC50 [3]: 3.39 µM (active)
AC50 [4]: 39 µM (inactive)

CNC(=O)c1cc2cc(OC)ccc2oc1=O
IC50 [5]: 2.13 µM (active)

C[C@@H]1CN([C@@H](C)CO)C(=O)c2cc(C#Cc3cccnc3)cnc2O[C@H]1CN(C)S(C)(=O)=O
AC50 [6]: 6.02 µM (active)

CC1C(c2ccccc2)OCCN1C(=S)Nc1ccc(S(=O)(=O)N2CCCCC2)cc1 (configuration not stated)
IC50 [7]: 4.48 µM (active)
IC50 [8]: 3.69 µM (active)

Cc1ccc(C2(SCC(N)C(=O)O)c3ccccc3-c3ccccc32)cc1 (configuration not stated)
IC50 [9]: 11 µM (active)
IC50 [10]: 32.5 µM (active)

Cc1cccc(-c2cc3nc(-c4ccccc4)cc(N4CCN(C(=O)c5ccco5)CC4)n3n2)c1
EC50 [11]: 3.77 µM (active)
EC50 [12]: 3.22 µM (active)

O=C(NC1CCCCC1)c1ccc(OC2CCN(Cc3ccccn3)CC2)cc1
IC50 [13]: 891 nM (active)
IC50 [14]: 8.43 µM (active)
IC50 [15]: 1.65 µM (active)

COc1cccc(C(=O)Nc2cc(N3CCCCC3)ncn2)c1
IC50 [16]: > 21.8 µM (inactive)

CN(C(=O)c1ccccc1Cl)C1CCCCC1
AC50 [17]: 346 nM (active)

O=C(NNC(=S)NC1CCCCC1)c1ccccc1O
IC50 [18]: > 94.1 µM (inactive)

Cc1cc(Cn2nc(-c3ccccc3)cc2C(=O)NCc2cccc(Br)c2)on1
IC50 [19]: 83.3 µM (inactive)
IC50 [20]: 2.08 µM (active)
IC50 [21]: 5.75 µM (active)

O=C1/C(=C\c2ccccc2)CN(C(=O)CCN2CCCCC2)C/C1=C/c1ccccc1
IC50 [22]: 2.89 µM (active)
IC50 [23]: 84.9 µM (active)

CC(=O)OCC1OC(n2c(S)c(C#N)c(-c3ccccc3)c(C#N)c2=O)C(OC(C)=O)C(OC(C)=O)C1OC(C)=O (configuration not stated)
EC50 [24]: > 29.9 µM (inactive)
IC50 [25]: 503 nM (active)

O=C(NC[C@H]1[C@H](c2ccccc2)[C@H](CO)N1Cc1ccccn1)C1CCC1
AC50 [26]: 129 µM (active)

CCOc1cccc(/C=N/NC(=O)c2cccnc2)c1O
IC50 [27]: 15.5 µM (active)
AC50 [28]: 101 µM (active)

Cc1nnsc1C(=O)Nc1ccc(S(=O)(=O)N2CCC(C)CC2)cc1
IC50 [29]: 27.1 µM (inactive)

CC(C)Oc1ccc(-c2nc(NCC3CCCO3)c3ccccc3n2)cc1 (configuration not stated)
CC50 [30]: 29.2 µM (active)
IC50 [31]: 24.2 µM (inactive)
IC50 [32]: 18.1 µM (active)

CC(C)(C)C(=O)NC(=S)NNC(=O)C(c1ccccc1)c1ccccc1
IC50 [13]: 4010 nM (active)
EC50 [33]: 1.2 µM (active)
EC50 [34]: 5.35 µM (inconclusive)
IC50 [15]: 6.48 µM (active)
EC50 [35]: 1.06 µM (active)
